Data on 1 molecule can be found in paper PMC11137182, “Selective and brain-penetrant ACSS2 inhibitors target breast cancer brain metastatic cells” (Frontiers in Pharmacology, 2024).

The assay concerns MDA-MB-231BR tumor bearing brain slices. Nature of the assay: Ex vivo tumor-brain slice model with irradiation. Further details: species or system nu/nu mice. As to conditions: 6 days. Here is the method:
Ex vivo brain slice tumor model was performed as previously described ([Ciraku et al., 2021]). Briefly, Nu/Nu athymic 4–6 week old mice Charles River Laboratories (Wilmington, MA, United States) were immobilized using the Just for Mice Stereotaxic Frame (Harvard Apparatus, Holliston, MA, United States) and injected intracranially with 5uL of 20,000 cells/uL solution of luciferase tagged MDA-MB-231BR or 4T1BR cells. Tumor growth was monitored via bioluminescence imaging on the IVIS system (Perkin Elmer, Waltman, MA, United States). Organotypic hippocampal cultures were prepared as described previously ([Ciraku et al., 2021]). Briefly, adult mice (4–6 weeks) or mice after 12 days following intracranial injection were decapitated and their brains rapidly removed into ice-cold (4°C) sucrose-aCSF composed of the following (in mM): 280 sucrose, 5 KCl, 2 MgCl2, 1 CaCl2, 20 glucose, 10 HEPES, 5 Na^+-ascorbate, 3 thiourea, 2 Na^+-pyruvate; pH = 7.3. […] Tumor growth was monitored via bioluminescence imaging on the IVIS 200 system (Perkin Elmer), and results were analyzed using Living Image software (Caliper Life Sciences, Waltham, MA, United StatesUnited States). […] Tissues were incubated at 37 ℃ , 5% CO2 for 4 h, and absorbance at 490 nm was measured with a Tecan Spark Microplate reader.

In the case of `N[C@H](C(=O)N1CCCC(c2ccccc2)(c2ccccc2)C1)C1CC1` [AD-8007], the “preformed BCBM tumors ex vivo, combination with radiation” value (20 μM plus one dose of 6 Gy) was “significantly reduced preformed BCBM tumors”. Also, the “BCBM cell growth ex vivo, drug alone” value (suboptimal dose 20 µM, no irradiation) is recorded as “little effect on BCBM cell growth”.
